Laboratory results as given in patent US20220409747A1, “FIBROBLAST ACTIVATION PROTEIN (FAP)-TARGETED IMAGING AND THERAPY OF CANCERS AND OTHER FIBROTIC AND INFLAMMATORY DISEASES” (Purdue Research Foundation, priority 2019, published 2022).

Experiments:
[1] = target: T1, FAP (e.g., FAP5) on HEK-FAP cells (Homo sapiens, UniProt Q12884); test: Displacement binding curves in HEK-FAP cells; details: displacement binding (FIGS. 21-22), read-out: affinity for cells that express FAP
T1 construct: expressed in transfected cells; host or cells: HEK
T1 sequence (Q12884 1-760): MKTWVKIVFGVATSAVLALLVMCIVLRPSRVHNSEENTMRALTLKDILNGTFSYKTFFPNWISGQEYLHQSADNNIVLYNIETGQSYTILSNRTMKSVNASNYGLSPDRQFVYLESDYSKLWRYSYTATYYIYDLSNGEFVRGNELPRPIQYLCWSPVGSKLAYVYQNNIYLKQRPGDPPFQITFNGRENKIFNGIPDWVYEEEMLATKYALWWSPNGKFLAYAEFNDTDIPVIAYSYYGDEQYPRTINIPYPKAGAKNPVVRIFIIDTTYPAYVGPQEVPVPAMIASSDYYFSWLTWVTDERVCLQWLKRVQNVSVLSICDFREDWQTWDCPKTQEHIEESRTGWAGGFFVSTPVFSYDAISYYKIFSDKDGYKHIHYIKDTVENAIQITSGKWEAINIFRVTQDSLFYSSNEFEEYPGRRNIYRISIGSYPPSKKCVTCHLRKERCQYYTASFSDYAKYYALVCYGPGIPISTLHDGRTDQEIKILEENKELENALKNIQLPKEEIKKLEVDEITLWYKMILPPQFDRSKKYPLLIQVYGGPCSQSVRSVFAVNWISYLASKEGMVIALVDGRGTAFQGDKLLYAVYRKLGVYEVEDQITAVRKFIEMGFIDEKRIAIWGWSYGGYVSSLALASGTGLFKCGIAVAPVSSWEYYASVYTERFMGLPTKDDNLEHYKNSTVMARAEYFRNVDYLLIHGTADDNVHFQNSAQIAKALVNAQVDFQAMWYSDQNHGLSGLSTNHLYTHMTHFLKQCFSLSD

[2] = target: T2, FAP5-expressing HT1080-FAP cells (human FAP-transfected) (Homo sapiens, UniProt Q12884); test: Confocal binding studies of FAP-targeting ligand on HT1080-FAP cells; assay type: cell-based
T2 construct: expressed in transfected cells; host or cells: HT1080
T2 sequence (Q12884 1-760): T1 sequence (Q12884 1-760)
Method: Method 1: HT1080-FAP cells ([…]) were seeded in 4-well confocal plates. The cells were allowed to grow as a monolayer over 24 h at 37° C. and were incubated with various concentrations of conjugate ranging from 3.0 nM (lowest) to 25 nM (highest) in 1% FBS in PBS for 1 h at 37° C. Cells were washed with 1% FBS (3×500 μL) and the cells were left in 500 μl of 1% FBS and images were acquired with confocal microscopy. Again, the PBS in cells was replaced with growth media and the cells were re-incubated at 37° C. for 8 to 48 h. Images acquired at different concentrations of the compound at 37° C. are shown in FIG. 3, at different time points are shown in FIG. 4, and with 100-fold excess of competition ligand are shown in FIG. 5.
Method 2: Human FAP-transfected HT1080-FAP cells were (100,000) were plated on 4-well confocal plates and incubated with different concentrations (50 nM, 25 nM, 12.5 nM, 6.25 nM, 3.125 nM and 1.65 nM) of the compound for 1 h at 37° C. The unbound fluorescence was removed by washing the cells 3× with medium, and cell-bound fluorescence was imaged using an Olympus confocal microscope. The experiment was done in triplicate.

[3] = target: T3, FAP5 on HT1080-FAP (HT1080-hFAP) cells (Homo sapiens, UniProt Q12884); test: Binding assay (cell-bound fluorescence, apparent Kd) on HT1080-FAP cells
T3 construct: expressed in transfected cells; host or cells: HT1080
T3 sequence (Q12884 1-760): T1 sequence (Q12884 1-760)
Method: Method 1: HT1080-FAP cells (200000 cells/well) were seeded in a 24-well plate. The cells were allowed to grow as a monolayer over 24 h and incubated with various concentrations of FAP-targeted rhodamine conjugate either in the presence or absence of excess competition ligand (ligand without dye). After incubating for 1 h at 4° C. the cells were washed 3× with PBS to remove unbound fluorescence. The cells were then dissolved in 1% SDS and the cell-bound fluorescence was measured using a Neo2 Plate Reader.
(§1) Method 2: 100,000 HT1080-hFAP and HT1080 cells were seeded in amine-coated 24-well plates to ensure cell adherence. Upon formation of a monolayer, cells were incubated with various concentrations of the compound in the presence or absence of excess of unlabeled ligand. After incubation for 1 h, the cells were washed 3× with medium to remove to unbound fluorescence and dissolved in 1% SDS. The cell-bound fluorescence was measured using a fluorescence spectrophotometer (NeO2 Plate reader) set with a λex=555 nm and λem=575 nm. Cell-bound fluorescence was plotted against various concentrations and the apparent Kd was determined by using one-site binding (hyperbola) curve fit in GraphPad prism7. The experiment was done in triplicate.

[4] = tested on: HT1080 cells that do not express FAP5; test: Binding assay on HT1080 cells that do not express FAP5; parameters: species or system human; details: FIG. 8
Method: as §1

Kd [1] [nM]	time remaining localized and internalized to FAP5-expressing cells ([2]; 12.5 nM, e.g., 1 hour, 8 hours, 24 hours, or more (FIG. 4))	localization to cells expressing FAP5 (confocal) ([2]; HT1080-FAP cells, 50 nM, 25 nM, 12.5 nM, and 6.5 nM (FIG. 3))	Kd ([3]; cells expressing FAP5 (FIG. 7)) [nM]	binding to HT1080 cells expressing FAP5 in the presence of an unlabelled FAP5 ligand ([3]; competitor e.g., compound 8, FIG. 8)	Compound	binding to HT1080 cells that do not express FAP5 [4]
1 to 10	–	–	–	–	CN(C)c1ccc2c(-c3ccc(C(=O)NCCNC(=O)c4cccc5c4CN(C(=O)C[C@@H]4C[C@@H](C(=O)N6CC(F)(F)C[C@H]6C#N)NC4=O)C5)cc3C(=O)[O-])c3ccc(=[N+](C)C)cc-3oc2c1 [compound 5]	–
1 to 10	–	–	–	–	N#C[C@@H]1C[C@H](F)CN1C(=O)[C@@H]1C[C@@H](CC(=O)N2Cc3cccc(Cn4cc(-c5ccc(C(=O)NCCNC(=O)CCC(=O)O)cc5)nn4)c3C2)C(=O)N1 [compound 21]	–
1 to 10	at least 1 hour	localizes to cells	5 to 15	does not bind	CN(C)c1ccc2c(c1)OC1=CC(=[N+](C)C)C=CC1C2c1ccc(C(=O)NCCOCCOCCOCCOCCC(=O)NCCNC(=O)c2ccc(-c3cn(Cc4cccc5c4CN(C(=O)C[C@@H]4C[C@@H](C(=O)N6CC(F)(F)C[C@H]6C#N)NC4=O)C5)nn3)cc2)cc1C(=O)O (stereo partly drawn) [compound 1]	does not bind
1 to 10	–	–	–	–	CN(C)c1ccc2c(-c3ccc(C(=O)NCCNC(=O)CCc4cccc5c4CN(C(=O)C[C@@H]4C[C@@H](C(=O)N6CC(F)(F)C[C@H]6C#N)NC4=O)C5)cc3C(=O)[O-])c3ccc(=[N+](C)C)cc-3oc2c1 [compound 6]	–
